In patent US5159077A, “Penam antibacterial compounds” (Hoffmann-La Roche Inc., priority 1989, dated 1992):
Structures can show the parent of a compound that is named as a salt. Where two headings read alike, the source gives them in different places.

Tests used:
Streptococcus 82 = assay: In vitro MIC, Agar Well Diffusion Method; format: cell-based, Streptococcus aureus
Description: (§1) In vitro antimicrobial activity was determined in BBL seed agar. Serial dilutions of the test compound were pipetted into agar wells (80 μL per well). […] For reference, see A. H. Litton, Antibiotics: Assessment of Antimicrobial Activity and Resistance, Academic Press, New York, pages 19-30 (1983).

[1] = tested on: Staphylococcus aureus ATCC 29213; assay: In vitro MIC, Broth Dilution Method; format: cell-based
Description: (§2) The diluted agents prepared in Mueller-Hinton broth were dispensed from a Dynatech MIC 2000 machine, in 100 microliter (μL) volumes into 96 well trays and used immediately or frozen at -10° to -70° C. until needed. Using a Dynatech inoculator and inoculum trays, 1.5 μL of a 10^-2 dilution of an overnight culture was added to each well of the tray. The tops of the trays were then sealed with tape, and the trays were incubated overnight at 37° C. and then examined with a viewer. The lowest concentration at which no growth was observed was considered to be the minimum inhibitory concentration (MIC).

Serratia marcescens SM [2] = assay: In vitro MIC, Broth Dilution Method; format: cell-based; settings: read-out: In Vitro MIC
Description: as §2

Proteus mirabilis 2 = assay: In vitro MIC, Broth Dilution Method; format: cell-based
Description: as §2

[3] = tested on: Staphylococcus aureus Smith; assay: In vitro MIC, Broth Dilution Method; format: cell-based; settings: read-out: In Vitro MIC
Description: as §2

Klebsiella pneumoniae A = assay: In vitro MIC, Broth Dilution Method; format: cell-based; settings: read-out: In Vitro MIC
Description: as §2

Escherichia coli 4 = assay: In vitro MIC, Broth Dilution Method; format: cell-based; settings: Escherichia coli, 4, read-out: In Vitro MIC
Description: as §2

[4] = tested on: Enterobacter cloacae 5699; assay: In vitro MIC, Broth Dilution Method; format: cell-based; settings: Enterobacter cloacae, 5699, read-out: In Vitro MIC
Description: as §2

Escherichia coli TEM-1 = assay: In vitro MIC, Broth Dilution Method; format: cell-based; settings: TEM1, read-out: In Vitro MIC
Description: as §2

[5] = tested on: Proteus vulgaris ATCC 6380; assay: In vitro MIC, Broth Dilution Method; format: cell-based; settings: Proteus vulgaris, ATCC6380, read-out: In Vitro MIC
Description: as §2

[6] = tested on: Pseudomonas aeruginosa Stone 130; assay: In vitro MIC, Broth Dilution Method; format: cell-based; settings: Pseudomonas aeruginosa, STONE130, read-out: In Vitro MIC
Description: as §2

Enterobacter cloacae P99 = assay: In vitro MIC, Broth Dilution Method; format: cell-based; settings: P99, read-out: In Vitro MIC
Description: as §2

Proteus mirabilis 90 = assay: In vitro MIC, Broth Dilution Method; format: cell-based; settings: Proteus mirabilis, 90, read-out: In Vitro MIC
Description: as §2

Serratia marcescens SM [7] = assay: In vitro MIC, Agar Well Diffusion Method; format: cell-based; settings: read-out: In Vitro MIC
Description: as §1

Proteus vulgaris 101N = assay: In vitro MIC, Agar Well Diffusion Method; format: cell-based; settings: read-out: In Vitro MIC
Description: as §1

[8] = tested on: Streptococcus faecium ATCC 8043; assay: In vitro MIC, Agar Well Diffusion Method; format: cell-based; settings: Enterococcus faecium
Description: as §1

[9] = tested on: Enterobacter cloacae 2952B; assay: In vitro MIC, Agar Well Diffusion Method; format: cell-based; settings: read-out: In Vitro MIC
Description: as §1

[10] = tested on: Pseudomonas aeruginosa 56; assay: In vitro MIC, Agar Well Diffusion Method; format: cell-based
Description: as §1

Micrococcus luteus PCl = assay: In vitro MIC, Agar Well Diffusion Method; format: cell-based; settings: read-out: In Vitro MIC
Description: as §1

Escherichia coli 1269B = assay: In vitro MIC, Agar Well Diffusion Method; format: cell-based; settings: read-out: In Vitro MIC
Description: as §1

Pseudomonas aeruginosa B = assay: In vitro MIC, Agar Well Diffusion Method; format: cell-based; settings: read-out: In Vitro MIC
Description: as §1

[11] = tested on: Klebsiella pneumoniae 369; assay: In vitro MIC, Agar Well Diffusion Method; format: cell-based
Description: as §1

[12] = tested on: Streptococcus pneumoniae 6301; assay: In vitro MIC, Broth Dilution Method; format: cell-based; settings: Broth Dilution Method; Streptococcus pneumoniae 6301; read-out: In Vitro MIC
Description: as §2

[13] = tested on: Pseudomonas aeruginosa ATCC 27853; assay: In vitro MIC, Broth Dilution Method; format: cell-based; settings: ATCC27853; Broth Dilution Method; Pseudomonas aeruginosa ATCC 27853; read-out: In Vitro MIC
Description: as §2

[14] = tested on: Citrobacter freundii BS-16; assay: In vitro MIC, Broth Dilution Method; format: cell-based; settings: BS16; Broth Dilution Method; Citrobacter freundii BS-16; read-out: In Vitro MIC
Description: as §2

[15] = tested on: Streptococcus faecalis ATCC 29212; assay: In vitro MIC, Broth Dilution Method; format: cell-based; settings: Enterococcus faecalis, ATCC29212; Broth Dilution Method; Streptococcus faecalis ATCC 29212; read-out: In Vitro MIC
Description: as §2

[16] = stability of the product (remark in the preparation); format: physicochemical; settings: remark on the isolated product

SMILES: CCn1cc(C(=O)[O-])c(=O)c2cc(F)c(N3CCN(C=N[C@H]4CN(S(=O)(=O)[O-])C4=O)CC3)cc21.[Na+].[Na+] [Compound E, (S)-1-Ethyl-6-fluoro-1,4-dihydro-4-oxo-7-[4-[[(1-sulfo-2-oxo-3-azetidinyl)imino]methyl]-1-piperazinyl]-3-quinolinecarboxylic acid disodium salt]
- MIC (Streptococcus 82; Streptococcus, 82, read-out: In Vitro MIC): 15.6 µg/mL
- MIC ([1]; Staphylococcus aureus, ATCC29213, read-out: In Vitro MIC): 2 µg/mL
- MIC (Serratia marcescens SM [2]; Serratia marcescens): 0.063 µg/mL
- MIC (Proteus mirabilis 2; Proteus mirabilis, 2, read-out: In Vitro MIC): 0.063 µg/mL
- MIC ([3]; Staphylococcus aureus): 0.5 µg/mL
- MIC (Klebsiella pneumoniae A; Klebsiella pneumoniae): 0.125 µg/mL
- MIC (Escherichia coli 4): 0.125 µg/mL
- MIC [4]: 0.125 µg/mL
- MIC (Escherichia coli TEM-1): 0.063 µg/mL
- MIC [5]: 0.031 µg/mL
- MIC [6]: 1 µg/mL
- MIC (Enterobacter cloacae P99): 0.063 µg/mL
- MIC (Proteus mirabilis 90): 0.063 µg/mL
- MIC (Serratia marcescens SM [7]; Serratia marcescens): 3.9 µg/mL
- MIC (Proteus vulgaris 101N; Proteus vulgaris, 101N): 1.95 µg/mL
- MIC ([8]; ATCC8043, read-out: In Vitro MIC): > 125 µg/mL
- MIC ([9]; Enterobacter cloacae, 2952B): 31.3 µg/mL
- MIC ([10]; Pseudomonas aeruginosa, 56, read-out: In Vitro MIC): 7.8 µg/mL
- MIC (Micrococcus luteus PCl; Micrococcus luteus): > 125 µg/mL
- MIC (Escherichia coli 1269B; Escherichia coli, 1269B): 7.8 µg/mL
- MIC (Pseudomonas aeruginosa B; Pseudomonas aeruginosa): 3.9 µg/mL
- MIC ([11]; Klebsiella pneumoniae, 369, read-out: In Vitro MIC): 3.9 µg/mL

SMILES: CCn1cc(C(=O)O)c(=O)c2cc(F)c(N3CCN(C=N[C@@H]4C(=O)N5[C@@H]4SC(C)(C)[C@@H]5C(=O)O)CC3)nc21 [Compound H, disodium salt]
- MIC (Streptococcus 82; Agar Well Diffusion Method, Streptococcus aureus 82, read-out: In Vitro MIC): 7.8 µg/mL
- MIC ([1]; ATCC29213, Broth Dilution Method, Staphylococcus aureus ATCC 29213, read-out: In Vitro MIC): 0.5 µg/mL
- MIC (Serratia marcescens SM [2]; Broth Dilution Method, Serratia marcescens SM): 0.5 µg/mL
- MIC (Proteus mirabilis 2; Broth Dilution Method, Proteus mirabilis 2, read-out: In Vitro MIC): 0.5 µg/mL
- MIC ([3]; Broth Dilution Method, Staphylococcus aureus Smith): 0.5 µg/mL
- MIC (Klebsiella pneumoniae A; Broth Dilution Method, Klebsiella pneumoniae A): 0.25 µg/mL
- MIC (Escherichia coli 4): 0.125 µg/mL
- MIC [12]: 2 µg/mL
- MIC [4]: 0.125 µg/mL
- MIC (Escherichia coli TEM-1): 0.125 µg/mL
- MIC [5]: 0.125 µg/mL
- MIC [13]: 8 µg/mL
- MIC [6]: 1 µg/mL
- MIC (Enterobacter cloacae P99): 0.125 µg/mL
- MIC [14]: 0.5 µg/mL
- MIC (Proteus mirabilis 90): 1 µg/mL
- MIC [15]: 8 µg/mL
- MIC (Serratia marcescens SM [7]; Agar Well Diffusion Method, Serratia marcescens SM): 31.3 µg/mL
- MIC (Proteus vulgaris 101N; Agar Well Diffusion Method, Proteus vulgaris 101N): 7.8 µg/mL
- MIC ([8]; ATCC8043, Agar Well Diffusion Method, Streptococcus faecium ATCC 8043, read-out: In Vitro MIC): 125 µg/mL
- MIC ([9]; Agar Well Diffusion Method, Enterobacter cloacae 2952B): 31.3 µg/mL
- MIC ([10]; Agar Well Diffusion Method, Pseudomonas aeruginosa 56, read-out: In Vitro MIC): 15.6 µg/mL
- MIC (Micrococcus luteus PCl; Agar Well Diffusion Method, Micrococcus luteus PCl): 31.3 µg/mL
- MIC (Escherichia coli 1269B; Agar Well Diffusion Method, Escherichia coli 1269B): 7.8 µg/mL
- MIC (Pseudomonas aeruginosa B; Agar Well Diffusion Method, Pseudomonas aeruginosa B): 15.6 µg/mL
- MIC ([11]; Agar Well Diffusion Method, Klebsiella pneumoniae 369, read-out: In Vitro MIC): 7.8 µg/mL
- stability [16]: very unstable
